pIC50, pKd: −log10 of the molar value. Values joined by “and” are separate entries in the source; they are usually repeats but may differ in a detail not shown here. Identical values can stand only once.
Columns and labels:
[1] = Two‐week repeated‐dose toxicity study, HF versus DWN12088; format: in vivo, mice; conditions: male, ICR (CrljOri: CD1), mouse, in vivo; oral once daily for 2 weeks, ICR mice
Protocol: (§1) To compare the in vivo toxicity of HF and DWN12088, all experiments were conducted following the international guidelines on the ethical use of experimental animals and approved by the Institutional Animal Care and Use Committee of KNOTUS (KNOTUS IACUC 21‐KE‐250 and KNOTUS IACUC 21‐KE‐359). ICR (CrljOri: CD1) mice (7‐week‐old, male, obtained from Koatech) were randomized (n = 6 for each group) and then orally administered with the indicated amounts of HF or DWN12088 once daily for 2 weeks. In the high‐dose group, the dose of DWN12088 was reduced from 120 mg/kg to 90 mg/kg from day 6. […] Body weight was measured at day 1, 2, 3, 4, 5, 8, 14, and 15.
(§2) After administering the drugs for 2 weeks, mice were fasted overnight and anesthetized with isoflurane. Blood samples were collected in EDTA‐coated tubes, and the following parameters were determined using a hematology analyzer (ADVIA 2120, SIEMENS, USA); red blood cell, platelet count, hematocrit, white blood cell, red cell distribution width, hemoglobin concentration distribution width, hemoglobin concentration, neutrophil, mean corpuscular volume, lymphocyte, mean cell hemoglobin, monocyte, mean cell hemoglobin concentration, eosinophil, mean platelet volume, basophil, reticulocytes, and large unstained cells.
(§3) For clinical chemistry, the remaining blood samples were incubated in a vacutainer tube with clot activator and then centrifuged to prepare serum. The following parameters were measured in the serum using a chemistry analyzer (7180, Hitachi, Japan) and electrolyte analyzer (AVL 9180, Roche, Switzerland); aspartate aminotransferase, albumin, alanine aminotransferase, albumin/globulin ratio, alkaline phosphatase, blood urea nitrogen, creatine phosphokinase, creatinine, total bilirubin, inorganic phosphorus, glucose, calcium, total cholesterol, sodium, triglyceride, potassium, total protein, and chloride.
(§4) After blood collection, blood was drained by incising the abdominal aorta and posterior vena cava, and all organs of the skin, brain, thoracic cavity, and abdominal cavity were observed. The relative weights of the lung, spleen, liver, heart, kidney, thymus, and testes were calculated by dividing the weight of each organ by the body weight. The experiments were conducted as non‐blind test.

ICR (CrljOri: CD1) mice = experiment: as above; format: in vivo
Protocol: as §1, §2, §3, §4

His‐PARS1 = target: T1, His‐PARS1 (Homo sapiens, UniProt P07814); experiment: Surface plasmon resonance (SPR); format: binding
T1 construct: His‐PARS1 (1001–1,512 aa); made in house; host or cells: Escherichia coli
T1 sequence (P07814 1001-1512 limits assumed): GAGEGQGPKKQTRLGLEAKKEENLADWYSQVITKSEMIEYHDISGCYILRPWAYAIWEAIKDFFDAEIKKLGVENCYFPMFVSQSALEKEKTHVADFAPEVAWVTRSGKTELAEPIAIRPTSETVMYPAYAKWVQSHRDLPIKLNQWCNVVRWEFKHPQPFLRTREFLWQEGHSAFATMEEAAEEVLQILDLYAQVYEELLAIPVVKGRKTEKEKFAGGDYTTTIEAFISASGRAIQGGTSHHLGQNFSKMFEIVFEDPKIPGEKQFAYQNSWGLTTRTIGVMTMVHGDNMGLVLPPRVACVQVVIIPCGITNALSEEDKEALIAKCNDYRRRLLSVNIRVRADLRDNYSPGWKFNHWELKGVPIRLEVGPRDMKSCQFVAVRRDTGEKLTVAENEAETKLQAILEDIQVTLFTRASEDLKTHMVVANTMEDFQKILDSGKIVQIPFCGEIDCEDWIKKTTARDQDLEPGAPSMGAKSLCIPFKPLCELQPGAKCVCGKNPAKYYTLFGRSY

phosphorylation of SMAD2 = experiment: Phosphorylation of SMAD2 (TGF‐β pathway), immunoblot; format: cell-based, human; conditions: 15 h; for Relative ratio of p-SMAD2/SMAD2, average / Relative ratio of p-SMAD2/SMAD2: + TGF-β; for Relative ratio of p-SMAD2/SMAD2: single experiments
Protocol: The levels of proteins were determined by immunoblot assay. […] The lowest concentration at which protein levels started to decrease was normalized by IC50 values for collagen level and used as the y‐axis value. […] The slope and R^2 value were calculated using GraphPad Prism 7.0. […] The activation of the TGF‐β pathway was determined by monitoring the phosphorylation of SMAD2. Immunoblot images are representative of three biologically independent experiments. • The band intensities of the immunoblot images in (C) were quantified using ImageJ (n = 3; One‐way ANOVA; *P < 0.05, **P < 0.01, ***P < 0.001; mean ± SEM). Source data are available online for this figure.

[2] = tested on: WI‐26 VA4 cells stably expressing PARS1 FA/EA/RL mutant; experiment: Collagen ELISA in cells stably expressing PARS1 mutant; conditions: for Collagen level, average: average of 4 experiments; for Collagen level, single replicates: replicates of Experiments #1-#4
[3] = 120 ➔ 90 mg/kg (from day 6) oral once daily
[4] = WI-26 VA4 Flag-PARS1 FA/EA/RL, 30 nM
[5] = WI-26 VA4 Flag-PARS1 FA/EA/RL, 100 nM
[6] = WI-26 VA4 Flag-PARS1 FA/EA/RL, 300 nM
[7] = WI-26 VA4 Flag-PARS1 FA/EA/RL, 1000 nM
[8] = WI-26 VA4 Flag-PARS1 FA/EA/RL, 3000 nM
[9] = WI-26 VA4 Flag-PARS1 FA/EA/RL, 10000 nM
[10] = WI-26 VA4 Flag-PARS1 FA/EA/RL, 30000 nM
[11] = WI-26 VA4 Flag-PARS1 FA/EA/RL, 100000 nM
[12] = WI-26 VA4 Flag-PARS1 FA/EA/RL, 300000 nM

O[C@H]1CCCN[C@@H]1CCCn1cnc2c(Cl)c(Cl)ccc21 [DWN12088]
NOAEL at 2 weeks [1]: 60 mg/kg | Hematology ↓ (ICR (CrljOri: CD1) mice; 60 mg/kg oral once daily, 2 weeks): HGB, MCHC | Clinical chemistry ↑ (ICR (CrljOri: CD1) mice; [3]): AST, ALT, ALP, GLU, BUN, CRE, IP, K^+ | Clinical chemistry ↓ (ICR (CrljOri: CD1) mice; [3]): TP, TCHO | Clinical signs (ICR (CrljOri: CD1) mice; [3]): Inanimation, hypothermia | Hematology ↓ (ICR (CrljOri: CD1) mice; [3]): RBC, HGB, MCHC | Necropsy finding (ICR (CrljOri: CD1) mice; [3]): • Pale liver (1/6) • Thymus atrophy (3/6) • Pale and large kidney (1/6) • Dark red contents in the stomach (1/6) | Organ weight ↑ (ICR (CrljOri: CD1) mice; [3]): Kidney, liver | Organ weight ↓ (ICR (CrljOri: CD1) mice; [3]): Spleen, thymus | Mortality: Terminal sacrifice (ICR (CrljOri: CD1) mice; 120 ➔ 90 mg/kg (from day 6) oral once daily, days 2, 5, 6 and 12): Terminal sacrifice: 4/6 (Each animal on days 2, 5, 6, and 12) | reduction in body weight (ICR (CrljOri: CD1) mice; all the tested doses): did not show weight loss | NOAEL of DWN12088 relative to that of HF (ICR (CrljOri: CD1) mice; male, ICR (CrljOri: CD1), mouse, in vivo, 2 weeks): more than 160 times | pKd (His‐PARS1; KD, + ATP (1 mM)): 4.51 | pKd (His‐PARS1; KD, - ATP): < 3.52 | pKd (His‐PARS1; Kd, SPR, in the presence of ATP): 4.51 | Relative ratio of p-SMAD2/SMAD2, average (phosphorylation of SMAD2; 0.2 μM): 0.76 | Relative ratio of p-SMAD2/SMAD2 (phosphorylation of SMAD2; 0.2 μM): 0.61 and 0.94 and 0.72 | Relative ratio of p-SMAD2/SMAD2, average (phosphorylation of SMAD2; 0.6 μM): 0.75 | Relative ratio of p-SMAD2/SMAD2 (phosphorylation of SMAD2; 0.6 μM): 0.65 and 0.71 and 0.87 | Relative ratio of p-SMAD2/SMAD2, average (phosphorylation of SMAD2; 2 μM): 0.70 | Relative ratio of p-SMAD2/SMAD2 (phosphorylation of SMAD2; 2 μM): 0.48 and 0.69 and 0.92 | Relative ratio of p-SMAD2/SMAD2, average (phosphorylation of SMAD2; 6 μM): 0.78 | Relative ratio of p-SMAD2/SMAD2 (phosphorylation of SMAD2; 6 μM): 0.66 and 0.77 and 0.91 | Relative ratio of p-SMAD2/SMAD2, average (phosphorylation of SMAD2; 20 μM): 0.41 | Relative ratio of p-SMAD2/SMAD2, average (phosphorylation of SMAD2; 60 μM): 0.16 | SMAD2 phosphorylation (phosphorylation of SMAD2; TGF‐β 2 ng/ml): reduced SMAD2 phosphorylation | pIC50 ([2]; Homo sapiens, WI26VA4, read-out: IC50, collagen level): 5.83 | CC50/collagen IC50 ([2]; PARS1 FA/EA/RL cells): 7.88 | Relative (CC50)/(collagen IC50) ([2]; PARS1 FA/EA/RL cells, relative to EV): 0.63 | Collagen level, average [2, 4]: 96.80 % of control | Collagen level, single replicates [2, 4]: 101.27 % of control and 106.03 % of control and 102.09 % of control and 97.52 % of control and 107.38 % of control and 87.30 % of control and 97.03 % of control and 100.22 % of control and 82.11 % of control and 93.95 % of control and 95.06 % of control and 91.64 % of control | Collagen level, average [2, 5]: 91.15 % of control | Collagen level, single replicates [2, 5]: 92.43 % of control and 98.06 % of control and 99.31 % of control and 91.83 % of control and 92.72 % of control and 85.46 % of control and 90.73 % of control (2×) and 82.66 % of control and 81.56 % of control and 88.43 % of control and 99.91 % of control | Collagen level, average [2, 6]: 79.61 % of control | Collagen level, single replicates [2, 6]: 87.41 % of control and 88.18 % of control and 78.49 % of control and 71.44 % of control and 76.98 % of control and 80.63 % of control and 81.90 % of control and 76.13 % of control and 73.84 % of control and 86.07 % of control and 78.20 % of control and 75.99 % of control | Collagen level, average [2, 7]: 62.53 % of control | Collagen level, single replicates [2, 7]: 72.91 % of control and 64.62 % of control and 69.50 % of control and 60.49 % of control and 52.43 % of control and 63.48 % of control and 72.89 % of control and 52.77 % of control and 57.64 % of control and 59.18 % of control and 66.74 % of control and 57.76 % of control | Collagen level, average [2, 8]: 26.56 % of control | Collagen level, single replicates [2, 8]: 25.97 % of control and 27.35 % of control and 25.49 % of control and 26.93 % of control and 30.39 % of control and 26.86 % of control and 25.02 % of control and 29.58 % of control and 24.14 % of control and 24.80 % of control and 25.63 % of control and 26.57 % of control | Collagen level, average [2, 9]: 4.37 % of control | Collagen level, single replicates [2, 9]: 4.38 % of control and 3.58 % of control and 3.17 % of control and 5.34 % of control and 4.53 % of control and 5.67 % of control and 3.18 % of control and 3.93 % of control and 4.88 % of control and 4.67 % of control and 4.47 % of control and 4.59 % of control | Collagen level, average [2, 10]: 2.20 % of control | Collagen level, single replicates [2, 10]: 2.07 % of control and 2.38 % of control and 2.98 % of control and 3.14 % of control and 2.40 % of control and 2.09 % of control and 1.49 % of control and 1.46 % of control and 1.88 % of control (2×) and 2.96 % of control and 1.71 % of control | Collagen level, average [2, 11]: 1.94 % of control | Collagen level, single replicates [2, 11]: 2.11 % of control and 2.24 % of control and 1.83 % of control and 2.90 % of control and 1.40 % of control and 1.89 % of control and 1.44 % of control and 1.33 % of control and 1.75 % of control and 1.90 % of control and 2.31 % of control and 2.15 % of control | Collagen level, average [2, 12]: 1.36 % of control | Collagen level, single replicates [2, 12]: 1.67 % of control and 0.92 % of control and 0.84 % of control and 1.94 % of control | HillSlope, collagen level ([2]; WI-26 VA4 Flag-PARS1 FA/EA/RL, four-parameter fit): -1.331 | LogIC50, collagen level ([2]; WI-26 VA4 Flag-PARS1 FA/EA/RL, log of concentration in nM, four-parameter fit): 3.174
